{"source": "patent US20020184656A1", "about": "“In vivo assay system for screening and validation of drugs and other substances” (priority 2001, published 2002)", "key": {"[1]": {"system": "transgenic flies expressing human APC (hAPC/CBD) in developing eyes (using ey-GAL4)", "assay": "Drug screening on human APC-induced eye phenotypes in transgenic flies (drug in fly food)", "assay_type": "in vivo, Drosophila", "conditions": "for Total number of flies with eye phenotypes (in parenthesis: total number of flies of right genotype) / Number of flies with eye phenotypic ranks 6-10 / Number of flies with eye phenotypic ranks 11-15 / Number of flies with eye phenotypic ranks 1-5 / Number of flies with eye phenotypic ranks 16-20: Ey-GAL4, hAPC/CBD", "procedure": "Table 1 Distribution of eye phenotypes induced by hAPC/CBD in different genetic backgrounds and in the presence of various compounds and other anti-cancer drugs. Numbers are from a representative experiment. Number in parenthesis in the last column indicates total number of the flies of right genotype.\n(§1) In yet another embodiment of the present invention, LD50 is determined for each of the chemicals tested. At concentrations LD50 and below, none of the drugs induce any morphological phenotypes in wildtype flies. Thereafter, the effect of these drugs on transgenic flies expressing human APC in developing eyes (using ey-GAL4) is examined.\nEye phenotypes induced by human APC are arranged in the order of severity from 1 to 20. Human APC in wildtype background induced phenotypes of ranks 1-9. […] WT—wild type eye.\n(§2) For drug screening, drugs (at different concentrations) were added to fly food at <50° C. and left over-night for drying. Care was taken to ensure homogenous mixing of the drug in the fly food. Blind-tests were carried out, wherein the vials with or without drugs were coded (with the help of other members of the lab). The crosses were always set-up in triplicates. The method of administering drugs described above is only an example and should not be limited to it as there can be other ways of administering drugs."}, "Drosophila": {"system": "Drosophila", "assay": "LD50 determination of the drugs in flies", "assay_type": "in vivo", "conditions": "drug in fly food", "procedure": "as §1, §2"}, "[2]": {"conditions": "50 micrograms/ml fly food, 47 flies of right genotype"}, "[3]": {"conditions": "200 microgram/ml fly food, 121 flies of right genotype"}, "[4]": {"conditions": "500 micrograms/ml fly food, 59 flies of right genotype"}, "[5]": {"conditions": "200 micrograms/ml fly food, 61 flies of right genotype"}}}
{"molecule": "O=c1[nH]cc(F)c(=O)[nH]1", "note": "[5-fluorouracil]", "values": [{"measurement": "Total number of flies with eye phenotypes (in parenthesis: total number of flies of right genotype)", "setting": "[1]; 50 micrograms/ml fly food", "value": "14(47)"}, {"measurement": "Number of flies with eye phenotypic ranks 6-10", "setting": "[1]; [2]", "value": 4}, {"measurement": "Number of flies with eye phenotypic ranks 11-15", "setting": "[1]; [2]", "value": 1}, {"measurement": "Number of flies with eye phenotypic ranks 1-5", "setting": "[1]; 50 micrograms/ml fly food, 47 flies of right genotype, severity ranks 1 to 20", "value": 9}]}
{"molecule": "COc1ccc2c(c1)c(CC(=O)O)c(C)n2C(=O)c1ccc(Cl)cc1", "note": "[Indomethacin]", "values": [{"measurement": "Total number of flies with eye phenotypes (in parenthesis: total number of flies of right genotype)", "setting": "[1]; 200 microgram/ml fly food", "value": "47(121)"}, {"measurement": "Number of flies with eye phenotypic ranks 1-5", "setting": "[1]; [3]", "value": 12}, {"measurement": "Number of flies with eye phenotypic ranks 6-10", "setting": "[1]; [3]", "value": 8}, {"measurement": "Number of flies with eye phenotypic ranks 11-15", "setting": "[1]; [3]", "value": 16}, {"measurement": "Number of flies with eye phenotypic ranks 16-20", "setting": "[1]; [3]", "value": 11}, {"measurement": "Effect on human APC-induced eye phenotypes", "setting": "[1]; ey-GAL4, extent similar to the enhancement shown by Df(3R)by^62", "value": "enhances human APC-induced eye phenotypes"}, {"measurement": "Concentration dependence of the effect on human APC-induced eye phenotypes", "setting": "[1]; ey-GAL4, human APC", "value": "concentration dependent"}, {"measurement": "Concentration of maximum effect on human APC-induced eye phenotypes", "setting": "[1]; ey-GAL4, human APC", "value": "200 μg/ml of fly food"}, {"measurement": "Ranks of eye phenotypes observed (severity 1 to 20)", "setting": "[1]; human APC in wildtype background without drug: ranks 1-9, often resulting eyeless flies", "value": "1-20"}, {"measurement": "LD50", "setting": "Drosophila", "value": "250 μg/ml of fly food"}]}
{"molecule": "CN1C(C(=O)Nc2ccccn2)=C(O)c2ccccc2S1(=O)=O", "note": "[Pyroxicam]", "values": [{"measurement": "Total number of flies with eye phenotypes (in parenthesis: total number of flies of right genotype)", "setting": "[1]; 500 micrograms/ml fly food", "value": "21(59)"}, {"measurement": "Number of flies with eye phenotypic ranks 1-5", "setting": "[1]; [4]", "value": 11}, {"measurement": "Number of flies with eye phenotypic ranks 6-10", "setting": "[1]; [4]", "value": 7}, {"measurement": "Number of flies with eye phenotypic ranks 11-15", "setting": "[1]; [4]", "value": 1}, {"measurement": "Number of flies with eye phenotypic ranks 16-20", "setting": "[1]; [4]", "value": 2}]}
{"molecule": "CC(=O)Oc1ccccc1C(=O)O", "note": "[aspirin]", "values": [{"measurement": "Total number of flies with eye phenotypes (in parenthesis: total number of flies of right genotype)", "setting": "[1]; 200 micrograms/ml fly food", "value": "19(61)"}, {"measurement": "Number of flies with eye phenotypic ranks 1-5", "setting": "[1]; [5]", "value": 13}, {"measurement": "Number of flies with eye phenotypic ranks 6-10", "setting": "[1]; [5]", "value": 4}, {"measurement": "Number of flies with eye phenotypic ranks 11-15", "setting": "[1]; [5]", "value": 2}]}
